pIC50: −log10 of the molar value.

In data set [1] the target is melatonin receptor. Kind of data set: Action of inhibiting 2-[^125 I]iodomelatonin binding (forebrain membrane sample). Set-up: species or system 7-days-old chicken (white leghorn). Conditions: 80 pM 2-[^125 I]iodomelatonin, chicken forebrain membranes, 90 minutes at 25° C., pH 7.7; non-specific binding with 10 μM melatonin; log-probit analysis; read-out: IC50 (50% inhibiting concentration), inhibition of 2-[^125 I]iodomelatonin binding. As to the method: Action of inhibiting 2-[^125 I]iodomelatonin binding
The forebrains of 7-days-old chicken (white leghorn) were homogenized with ice-cold assay buffer (50 mM Tris-HCl, pH 7.7 at 25° C.) and centrifuged at 44,000×g for 10 minutes at 4° C. The pellet was washed once with the same buffer. For the assay, the frozen tissue pellet was thawed and homogenized with the assay buffer to make a protein concentration of 0.3-0.4 mg/ml. In this way, the membrane sample was prepared. The membrane sample was incubated with a test compound and a ligand (80 pM 2-[^125 I]iodomelatonin, about 100,000 dpm) in a total volume of 0.5 ml for 90 minutes at 25° C. The reaction was terminated by adding 3 ml of ice-cold assay buffer immediately followed by vacuum filtration on Whatman GF/B which was further washed twice with 3 ml of ice-cold assay buffer. The radioactivity on the filter was determined by means of γ-counter. […] The 50% inhibiting concentration (IC50) was determined by the log-probit analysis.

Data set [2] has as its system central nervous system. Conditions: administered peripherally; Bioorganic & Medicinal Chemistry Letters, Vol. 4, p. 1485 (1994); cited from earlier work.
The test system of data set [3] is metabolic enzymes. Conditions: Rinsho Kensa, Vol. 38, No. 11 (1994); cited from earlier work.

For the compound `COc1ccc2nc(Cl)cc(CCNC(C)=O)c2c1` [Working Example 1, N-[2-(2-chloro-6-methoxyquinolin-4-yl)ethyl]acetamide], in data set [1], the pIC50 was 8.08.
On the same count and under the same terms, next, `COc1ccc2nc(Cl)cc(CCNC(=O)C(F)(F)F)c2c1` [compound 3]: 8.05.
In the case of `COc1ccc2[nH]cc(CCNC(C)=O)c2c1` [melatonin, N-acetyl-5-methoxytryptamine], in data set [2], the “activity on central nervous system” value is “inactive”. For the same compound, the “metabolism by metabolic enzymes in a living body” value in data set [3] was “readily metabolized”.

The values above are taken from patent publication US5708005A, “Quinolines, their production and use” (priority 1995, dated 1998).
